Test results as given in patent US10905777B2, “Systems and methods for nucleic acid expression in vivo” (DNARx, priority 2015, dated 2021).

Columns and labels:
luciferase [1] = test: Mouse spleen luciferase levels after IV PEI:EF-1 Luc DNA complexes with drug pre-injection; format: in vivo; conditions: mice; day 1; IP drug two hours prior to IV PEI:DNA (12.5 μg); amlexanox 200 μg, chloroquine 1 mg, SAHA 200 μg, tofacitinib 300 μg per mouse
Rituximab = test: Serum Rituximab ELISA in mice after sequential injection of Rituximab DNA vector; format: in vivo; conditions: 24 hours, IP pre-treatment (VPA 15 or 2 mg/kg, Theo 30 or 15 mg/kg), 1050 nmoles DexP liposomes, 75 ug DNA, Dex
Description: Mice were bled and serum isolated as for G-CSF. Rituximab levels were measured using an Immunoguide ELISA obtained from Eagle Biosciences, and performed according to instructions. […] .
. […] Numbered plasmids (in FIG. 30) were codon-optimized versions of the original, CpG-free but not codon optimized Rituximab DNA sequence.
. […] Thus, significant Rituximab serum levels can be produced by either dual- or single-cassette, 2A peptide-containing DNA vectors.
. Mock-injected mice received LR only without lipid or DNA. Serum levels of Rituximab protein and ALT were assayed 24 hrs later.

human factor IX = test: Human Factor IX ELISA in mice; conditions: 24 hrs, IP pre-treatment (VPA 2 mg/kg, Theo 30 mg/kg), 1500 nmoles DexP DOTAP SUV, 60 ug factor IX vector, Dex
Description: In this Example, three mice were injected per group. […] This was followed two minutes later by a single IV injection of 60 ug of a codon optimized, EF-1-driven single cassette DNA vector encoding the human factor IX cDNA (see constructs in FIGS. 38 and 44). […] Where indicated, animals were also pretreated by IP injection of 2 mg/kg Valproic Acid (VPA) or 30 mg/kg Theophylline (Theo). […] Each mouse was bled as for G-CSF. Blood was collected into tubes containing Potassium EDTA or Sodium Citrate to prevent coagulation and centrifuged to obtain plasma. An AssayPro ELISA specific to human Factor IX was used according to manufacturer's instructions to measure Factor IX expression.

[2] = test system: CD20-expressing human Raji B cells; test: FACS binding to Raji cells; format: cell-based; conditions: anti-human IgG-PE, serum six weeks after injection
Description: In this Example, Raji cells (1 million/sample) were incubated with mouse serum samples or recombinant Rituximab (50 ng/ml) for 1 hr at 4C, in FACS binding buffer containing EDTA and 0.5% BSA. Following washes, samples were incubated with fluorescently labeled secondary antibody (anti-human IgG-PE) for 30 min, washed and analyzed using an Accuri flow cytometer. Between 3500-5000 events were recorded for each sample. The experiment was repeated twice with similar results.

luciferase [3] = test: Mouse lung luciferase activity after IV DNA vector delivery; format: in vivo; conditions: mice, day 7
Description: Lung was homogenized with 500 ul of 1× Lysis buffer (Promega, Wis.). The homogenate was centrifuged at 3000×g at 4C for 10 min. and the supernatant collected. Luciferase activity was assayed using 20 μl of supernatant and 100 μl of Luciferase reagent for 10 seconds using a GloMax® Luminometer (Promega, Wis.).
In each case, cationic liposome injection was followed two minutes later by IV injection of 40 μg of an mCMV-EF1-luciferase, CPG-free, single cassette, DNA vector. […]

human G-CSF = test: Serum human G-CSF ELISA in mice after sequential IV cationic liposome then CPG-free DNA vector injection; format: in vivo; conditions: IP 2 hours before and 2 hours after 900 nmol DOTAP SUV then 70 ug DNA, dexamethasone 40 mg/kg, Tofacitinib 15 mg/kg
Description: Three to five mice were injected per group.
Each mouse was anesthetized and then bled via the submandibular vein. Serum was then isolated from whole blood and human G-CSF levels measured in pg/ml, as performed strictly according to the manufacturer's specifications, using an R and D systems human G-CSF ELISA.
Five mice were injected per group. […] Serum hG-CSF levels were assessed beginning at day seven after IV injection, and at seven-day intervals thereafter.
Sera were collected from groups of four mice at either day 6 or 14 following sequential, IV injection of 800 nmoles of pure DOTAP MLV cationic liposomes, followed two minutes later by IV injection of 40 μg either an EF1-luciferase—EF1-hGCSF (2 expression cassette) or an EF1-hGCSF (1 expression cassette), CPG-free, single plasmid DNA vector.
Sera were collected from groups of four mice at day 1 following sequential, IV injection of buffer alone (control), 1000 nmoles of pure DOTAP SUV cationic liposomes, alone or co-injected with 1000 nmol of neutral MLV, followed two minutes later by IV injection of 120 μg an EF1-luciferase—EF1-hGCSF (2 expression cassette), CPG-free, single plasmid DNA vector or 1400 nmoles of pure DOTAP SUV cationic liposomes, alone or co-injected with 1000 nmol of neutral MLV, followed two minutes later by IV injection of 100 μg of EF1-luciferase—EF1-hGCSF DNA. […]

[4] = in vivo; cited from earlier work
[5] = drug with 800 nmoles DOTAP MLV (L-arginine 2 mg/kg, colchicine 0.01 mg/kg, dexamethasone 1 mg/kg) then 40 μg single cassette mCMV-EF1-luciferase
[6] = drug with 800 nmoles DOTAP MLV then 40 μg dual cassette EF1-luciferase—EF1-hGCSF

CCN(CC)CCCC(C)Nc1ccnc2cc(Cl)ccc12 (centres unmarked) [chloroquine]
spleen gene expression (luciferase) levels (luciferase [1]): increased gene expression levels

Cn1c(=O)c2[nH]cnc2n(C)c1=O [Theophylline]
serum Rituximab levels (Rituximab): significantly increased | serum human factor IX levels (human factor IX): significantly higher

Recombinant Rituximab: recombinant Rituximab (anti-CD20) protein used as reference
Mean Fluorescence Intensity [2]: 5781.87

CC(C)c1ccc2oc3nc(N)c(C(=O)O)cc3c(=O)c2c1 [amlexanox]
spleen gene expression (luciferase) levels (luciferase [1]): increased gene expression levels

COc1cc2c(c(OC)c1OC)-c1ccc(OC)c(=O)cc1[C@@H](NC(C)=O)CC2 [colchicine]
luciferase activity in the lung vs DOTAP MLV alone (control) (luciferase [3]; [5]): higher luciferase activity

CCCc1nn(C)c2c(=O)[nH]c(-c3cc(S(=O)(=O)N4CCN(C)CC4)ccc3OCC)nc12 [sildenafil]
luciferase activity in the lung vs DOTAP MLV alone (control) (luciferase [3]; [6]): higher luciferase activity

O=C(CCCCCCC(=O)Nc1ccccc1)NO [SAHA, suberanilohydroxamic acid]
spleen gene expression (luciferase) levels (luciferase [1]): increased gene expression levels

CCCC(CCC)C(=O)O [valproic acid]
serum Rituximab levels (Rituximab): significantly increased | serum human factor IX levels (human factor IX): significantly higher

N=C(N)NCCC[C@H](N)C(=O)O [L-arginine]
luciferase activity in the lung vs DOTAP MLV alone (control) (luciferase [3]; [5]): failed to increase gene expression levels | luciferase activity in the lung vs DOTAP MLV alone (control) (luciferase [3]; [6]): either lower than or comparable to controls

C[C@@H]1CCN(C(=O)CC#N)C[C@@H]1N(C)c1ncnc2[nH]ccc12 [tofacitinib]
HuG-CSF protein levels (human G-CSF): did neither

B1: Neupogen: recombinant human G-CSF protein (protein, UniProt P09919 31-207, looked up)
Granulocyte …: TPLGPASSLPQSFLLKCLEQVRKIQGDGAALQEKLVSECATYKLCHPEELVLLGHSLGIPWAPLSSCPSQALQLAGCLSQLHSGLFLYQGLLQALEGISPELGPTLDTLQLDVADFATTIWQQMEELGMAPALQPTQGAMPAFASAFQRRAGGVLVASHLQSFLEVSYRVLRHLAQP
modifications: filgrastim
time for serum hG-CSF levels to return to baseline [4]: approximately 14 hours
